This note sets out measurements from patent US9351974B2, “Substituted pteridinones for the treatment of cancer” (OSI Pharmaceuticals, LLC, priority 2011, dated 2016).

Each structure is given as a SMILES string.

T1 sequence (P51812 whole entry): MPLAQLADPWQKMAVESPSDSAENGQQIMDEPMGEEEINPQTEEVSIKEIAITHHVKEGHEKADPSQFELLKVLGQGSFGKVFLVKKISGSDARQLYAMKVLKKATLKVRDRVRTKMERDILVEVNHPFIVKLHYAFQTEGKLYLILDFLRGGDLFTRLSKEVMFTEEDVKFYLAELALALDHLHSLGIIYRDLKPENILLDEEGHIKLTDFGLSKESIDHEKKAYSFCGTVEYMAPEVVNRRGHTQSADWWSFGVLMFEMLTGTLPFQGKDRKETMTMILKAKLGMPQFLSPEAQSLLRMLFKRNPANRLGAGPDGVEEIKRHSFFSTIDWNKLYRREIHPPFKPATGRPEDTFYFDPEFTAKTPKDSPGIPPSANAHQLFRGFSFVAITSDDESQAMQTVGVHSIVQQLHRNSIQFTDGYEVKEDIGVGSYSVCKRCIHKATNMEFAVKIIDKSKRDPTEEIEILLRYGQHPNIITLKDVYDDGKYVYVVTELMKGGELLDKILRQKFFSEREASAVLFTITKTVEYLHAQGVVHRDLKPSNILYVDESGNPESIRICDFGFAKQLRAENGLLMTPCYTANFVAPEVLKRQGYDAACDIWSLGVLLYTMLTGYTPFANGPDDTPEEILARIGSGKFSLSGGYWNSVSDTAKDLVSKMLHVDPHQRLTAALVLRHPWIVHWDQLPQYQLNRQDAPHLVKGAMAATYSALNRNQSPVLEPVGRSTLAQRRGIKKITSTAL

The assay has as its target T1, His-tagged full-length RSK2 (RPS6KA3) (Homo sapiens, UniProt P51812).
T1 construct: His-tagged full-length RSK2 (RPS6KA3, Invitrogen PV3323); His; purchased Invitrogen PV3323
As to the kind of experiment: RSK2 Omnia Assay for compound IC50 determination. In kind it is biochemical. The following applies: ATP 15 μM, n=2, read-out: Mean RSK2 Biochem IC50. How it is done: RSK1 & RSK2 Omnia Assay Protocol for Compound IC50 Determination
The Omnia Assay (Invitrogen) has been optimized for His-tagged full length RSK1 (RPS6KA1, Millipore 14-509) and for His-tagged full-length RSK2 (RPS6KA3, Invitrogen PV3323). In this assay system, Omnia ST Peptide 6 (Invitrogen KNZ1061) functions as a substrate for RSK1 or RSK2. Phosphorylation of this SOX-containing peptide results in an increase in fluorescence at 485 nm upon excitation at 360 nm.
Assays are carried out in 384-well OptiPlates (Perkin Elmer 6007290) in a total volume of 20 μL containing RSK1 ([…]) or RSK2 ([…]), Omnia ST Peptide 6 (5 μM), ATP (15 μM, Km=16.3 μM), and test compound (variable) in RSK assay buffer (50 mM HEPES, pH 7.5, 10 mM MgCl2, 0.01% Tween-20, 1% glycerol, 1 mM DTT, 1 mM EGTA, 0.01% BSA) with 1% DMSO.
IC50s for test compounds are typically determined using an 11-point three-fold serial dilution with a final assay concentration ranging either from 170 μM to […] or from 17 μM to […]. All compound concentrations are assayed in duplicate. Initial compound dilutions are prepared at 100× concentration in 100% DMSO from a 10 mM stock solution. Compounds are further diluted 1:25 in assay buffer resulting in a 4× concentrated solution.
To run the assay 5 μL of the above 4× concentrated compound solution (or 4% DMSO for positive controls) is added to the assay plate followed by 5 μL of a solution containing peptide (20 μM) and ATP (60 μM) in assay buffer. The reaction is initiated by the addition of 10 μL of RSK1 ([…]) or RSK2 ([…]) in assay buffer, or assay buffer alone for negative controls. The increase in fluorescence due to peptide phosphorylation is monitored continuously as a function of time using a Spectramax M5 plate reader (Molecular Devices) equipped with SoftMax Pro software.
The slopes from the linear portion of progress curves are used to determine IC50 values by non-linear curve-fitting to a four-parameter equation using GraphPad Prism (GraphPad Software, Inc.) or XLFit (IDBS). IC50's are determined in duplicate (n=2) and Ki values are calculated from IC50 values using the Cheng-Prusoff equation assuming a competitive mode of inhibition.
Broadly, the IC50 is the concentration needed to halve the response being measured. Regarding `CC(C)CCN1c2nc(N[C@H]3CC[C@H](O)CC3)ncc2N(c2ccccc2)C(=O)C1C` (relative stereo) [Example 11, 2-[(trans-4-hydroxycyclohexyl)amino]-7-methyl-8-(3-methylbutyl)-5-phenyl-7,8-dihydropteridin-6(5H)-one], the half-inhibitory concentration (IC50) was over 1000 nM.
Take `CC(C)CCN1c2nc(N[C@H]3CC[C@@H](O)CC3)ncc2N(c2ccccc2)C(=O)C1C` (relative stereo) [Example 12, 2-[(cis-4-hydroxycyclohexyl)amino]-7-methyl-8-(3-methylbutyl)-5-phenyl-7,8-dihydropteridin-6(5H)-one]: the concentration for half-maximal inhibition (IC50) was over 1000 nM.
The figure for `CC(C)CCN1c2nc(Nc3ccc4[nH]ncc4c3)ncc2N(c2ccccc2)C(=O)C1C` (stereo not drawn) [Example 1, 2-(1H-indazol-5-ylamino)-7-methyl-8-(3-methylbutyl)-5-phenyl-7,8-dihydropteridin-6(5H)-one] is at most 100 nM; for `CC(C)CCN1c2nc(Nc3cc(F)c(O)c(F)c3)ncc2N(c2ccccc2)C(=O)C1C` (stereo not drawn) [Example 2, 2-[(3,5-difluoro-4-hydroxyphenyl)amino]-7-methyl-8-(3-methylbutyl)-5-phenyl-7,8-dihydropteridin-6(5H)-one] it is at most 100 nM; for `CC(C)CCN1c2nc(Nc3ccc4c(c3)CC(=O)N4)ncc2N(c2ccccc2)C(=O)C1C` (stereo not drawn) [Example 3, 7-methyl-8-(3-methylbutyl)-2-[(2-oxo-2,3-dihydro-1H-indol-5-yl)amino]-5-phenyl-7,8-dihydropteridin-6(5H)-one] it is at most 100 nM.
As to `CCOP(=O)(Cc1ccc(Nc2ncc3c(n2)N(CCC(C)C)C(C)C(=O)N3c2ccccc2)cc1)OCC` (stereo not drawn) [Example 4, diethyl (4-{[7-methyl-8-(3-methylbutyl)-6-oxo-5-phenyl-5,6,7,8-tetrahydropteridin-2-yl]amino}benzyl)phosphonate], the 50% inhibitory concentration (IC50) was over 1000 nM.
`CNC(=O)Cc1ccc(Nc2ncc3c(n2)N(CCC(C)C)C(C)C(=O)N3c2ccccc2)cc1` (stereo not drawn) [Example 5, N-methyl-2-(4-{[7-methyl-8-(3-methylbutyl)-6-oxo-5-phenyl-5,6,7,8-tetrahydropteridin-2-yl]amino}phenyl)acetamide]: the half-maximal inhibitory concentration (IC50) was 100 to 1000 nM.
Under `CC(C)CCN1c2nc(Nc3ccc(CC(=O)N(C)C)cc3)ncc2N(c2ccccc2)C(=O)C1C` (stereo not drawn) [Example 6, N,N-dimethyl-2-(4-{[7-methyl-8-(3-methylbutyl)-6-oxo-5-phenyl-5,6,7,8-tetrahydropteridin-2-yl]amino}phenyl)acetamide] stands 100 to 1000 nM; under `CNS(=O)(=O)Cc1ccc(Nc2ncc3c(n2)N(CCC(C)C)C(C)C(=O)N3c2ccccc2)cc1` (stereo not drawn) [Example 7, N-methyl-1-(4-{[7-methyl-8-(3-methylbutyl)-6-oxo-5-phenyl-5,6,7,8-tetrahydropteridin-2-yl]amino}phenyl)methanesulfonamide], over 1000 nM.
As for `CC(C)CCN1c2nc(Nc3ccc(CS(=O)(=O)N(C)C)cc3)ncc2N(c2ccccc2)C(=O)C1C` (stereo not drawn) [Example 8, N,N-dimethyl-1-(4-{[7-methyl-8-(3-methylbutyl)-6-oxo-5-phenyl-5,6,7,8-tetrahydropteridin-2-yl]amino}phenyl)methanesulfonamide], the IC50 was over 1000 nM.
Under `COC(=O)c1ccc(Nc2ncc3c(n2)N(CCC(C)C)C(C)C(=O)N3c2ccccc2)cc1` (stereo not drawn) [Example 9, methyl 4-{[7-methyl-8-(3-methylbutyl)-6-oxo-5-phenyl-5,6,7,8-tetrahydropteridin-2-yl]amino}benzoate] stands over 1000 nM.
On to `COC(=O)c1cccc(Nc2ncc3c(n2)N(CCC(C)C)C(C)C(=O)N3c2ccccc2)c1` (stereo not drawn) [Example 10, methyl 3-{[7-methyl-8-(3-methylbutyl)-6-oxo-5-phenyl-5,6,7,8-tetrahydropteridin-2-yl]amino}benzoate], for which the half-inhibitory concentration (IC50) is over 1000 nM.
With `CC(C)N1c2nc(Nc3ccc4[nH]ncc4c3)ncc2N(c2ccccc2)C(=O)C1C` (stereo not drawn) [Example 13, 2-(1H-indazol-5-ylamino)-7-methyl-5-phenyl-8-(propan-2-yl)-7,8-dihydropteridin-6(5H)-one], the IC50 is 100 to 1000 nM.
Under `CC(C)CCN1c2nc(Nc3ccc(C(=O)O)cc3)ncc2N(c2ccccc2)C(=O)C1C` (stereo not drawn) [Example 14, 4-{[7-methyl-8-(3-methylbutyl)-6-oxo-5-phenyl-5,6,7,8-tetrahydropteridin-2-yl]amino}benzoic acid] stands at most 100 nM.
For the compound `CC(C)CCN1c2nc(Nc3cccc(C(=O)O)c3)ncc2N(c2ccccc2)C(=O)C1C` (stereo not drawn) [Example 15, 3-{[7-methyl-8-(3-methylbutyl)-6-oxo-5-phenyl-5,6,7,8-tetrahydropteridin-2-yl]amino}benzoic acid], the IC50 is over 1000 nM.
Turning to `CC(C)CCN1c2nc(Nc3ccc4[nH]ncc4c3)ncc2N(c2ccccc2)C(=O)[C@H]1C` [Example 16, (7R)-2-(1H-indazol-5-ylamino)-7-methyl-8-(3-methylbutyl)-5-phenyl-7,8-dihydropteridin-6(5H)-one], the 50% inhibitory concentration (IC50) was at most 100 nM.
Under `CC(C)CCN1c2nc(Nc3ccc4[nH]ncc4c3)ncc2N(c2ccccc2)C(=O)[C@@H]1C` [Example 17, (7S)-2-(1H-indazol-5-ylamino)-7-methyl-8-(3-methylbutyl)-5-phenyl-7,8-dihydropteridin-6(5H)-one] stands at most 100 nM; under `C[C@@H]1C(=O)N(c2ccccc2)c2cnc(Nc3ccc4[nH]ncc4c3)nc2N1C1CCCCC1` [Example 18, (7R)-8-cyclohexyl-2-(1H-indazol-5-ylamino)-7-methyl-5-phenyl-7,8-dihydropteridin-6(5H)-one], at most 100 nM; under `C[C@@H]1C(=O)N(c2ccc(C#N)cc2)c2cnc(Nc3ccc4[nH]ncc4c3)nc2N1C1CCCCC1` [Example 19, 4-[(7R)-8-cyclohexyl-2-(1H-indazol-5-ylamino)-7-methyl-6-oxo-7,8-dihydropteridin-5(6H)-yl]benzonitrile], at most 100 nM.
The figure for `C[C@@H]1C(=O)N(c2ccncc2)c2cnc(Nc3ccc4[nH]ncc4c3)nc2N1C1CCCCC1` [Example 20, (7R)-8-cyclohexyl-2-(1H-indazol-5-ylamino)-7-methyl-5-(pyridin-4-yl)-7,8-dihydropteridin-6(5H)-one] is at most 100 nM; for `C[C@@H]1C(=O)N(c2ccc(Cl)cc2)c2cnc(Nc3ccc4[nH]ncc4c3)nc2N1C1CCCCC1` [Example 21, (7R)-5-(4-chlorophenyl)-8-cyclohexyl-2-(1H-indazol-5-ylamino)-7-methyl-7,8-dihydropteridin-6(5H)-one] it is at most 100 nM; for `Cc1ccc(N2C(=O)[C@@H](C)N(C3CCCCC3)c3nc(Nc4ccc5[nH]ncc5c4)ncc32)cc1` [Example 22, (7R)-8-cyclohexyl-2-(1H-indazol-5-ylamino)-7-methyl-5-(4-methylphenyl)-7,8-dihydropteridin-6(5H)-one] it is at most 100 nM.
For `C[C@@H]1C(=O)N(c2ccc(F)cc2)c2cnc(Nc3ccc4[nH]ncc4c3)nc2N1C1CCCCC1` [Example 24, (7R)-8-cyclohexyl-5-(4-fluorophenyl)-2-(1H-indazol-5-ylamino)-7-methyl-7,8-dihydropteridin-6(5H)-one], the IC50 is at most 100 nM.
The figure for `C[C@@H]1C(=O)N(c2cccc(F)c2)c2cnc(Nc3ccc4[nH]ncc4c3)nc2N1C1CCCCC1` [Example 25, (7R)-8-cyclohexyl-5-(3-fluorophenyl)-2-(1H-indazol-5-ylamino)-7-methyl-7,8-dihydropteridin-6(5H)-one] is at most 100 nM; for `COc1ccc(N2C(=O)[C@@H](C)N(C3CCCCC3)c3nc(Nc4ccc5[nH]ncc5c4)ncc32)cc1` [Example 26, (7R)-8-cyclohexyl-2-(1H-indazol-5-ylamino)-5-(4-methoxyphenyl)-7-methyl-7,8-dihydropteridin-6(5H)-one] it is at most 100 nM; for `C[C@@H]1C(=O)N(c2ccc(C(=O)N(C)C)cc2)c2cnc(Nc3ccc4[nH]ncc4c3)nc2N1C1CCCCC1` [Example 27, 4-[(7R)-8-cyclohexyl-2-(1H-indazol-5-ylamino)-7-methyl-6-oxo-7,8-dihydropteridin-5(6H)-yl]-N,N-dimethylbenzamide] it is at most 100 nM.
With `COc1cccc(N2C(=O)[C@@H](C)N(C3CCCCC3)c3nc(Nc4ccc5[nH]ncc5c4)ncc32)c1` [Example 28, (7R)-8-cyclohexyl-2-(1H-indazol-5-ylamino)-5-(3-methoxyphenyl)-7-methyl-7,8-dihydropteridin-6(5H)-one], the IC50 is at most 100 nM.
